{"source": "patent US20100104546A1", "about": "“MODULATORS OF ANTIGEN-DEPENDENT T CELL PROLIFERATION” (CHILDREN, YOUTH AND WOMEN'S HEALTH SERVICE, priority 2007, published 2010)", "key": {"Th1 and Th2 cytokines": {"test_system": "Th1 and Th2 cytokines", "experiment": "Cytokine levels of mitogen-stimulated splenocytes, ex vivo", "format": "in vivo, mice", "conditions": "3 days", "protocol": "Mice were sensitized with SRBC and after 5 days were injected with β-oxa-21:3n-3 or vehicle intraperitoneally. After 2 h spleens were removed, cell suspensions prepared and incubated in the presence of mitogens PHA/PMA or PMA/A23187. After 3 days of incubation, the culture fluids and were harvested and used to determine the levels of Th1 and Th2 cytokines. Baseline subtracted levels of cytokines plotted in the presence of vehicle or β-oxa-21:3n-3. The values represent the mean±SEM separate experiments each conducted in quintuplets.\n(§1) 6-7 weeks old Balb/c mice were injected subcutaneously with 100 μl of 10% sheep red blood cells (IMVS, Inc., Adelaide, Australia) After 5 days 100 ul of β-oxa-21:3n-3 at indicated amounts were injected intraperitoneally, intravenously or gavaged orally. In another experimental set up mice were given β-tha-21:3n-3 i.p. In a third approach mice were infected subcutaneously with 100 μl of Tetanus Toxoid (2,500 Lf/ml). Then 7 days later were given β-oxa-21:3n-3. At indicated time points mice were sacrificed and spleens were removed. Single cell suspensions were prepared and white blood cells (WBC) were enriched by passing through Ficoll-Paque Plus (GE Healthcare). Cells were washed with RPMI-1640 containing 10% fetal bovine serum, 10 mM Hepes, antibiotics and glutamine (RPMI-10) and counted using an automated Cell-Dyne 3500R (Abbott, Inc. MA) instrument. Cells were viable (>98%) as judged by trypan blue exclusion. (β-oxa-21:3n-3)- or vehicle-treated mouse samples (200,000/well) were mixed either with SRBC (600,000/well) with 100 μl of Tetanus toxoid (50 Lf/ml) or phytohaemaglutinin (PHA) (2 μg/ml) or with PHA plus phorbol myristate acetate (PMA) (10 ng/ml) or with PMA plus calcium ionophore A23187 ([…]). Cells were cultured in 96 well U bottom plates (Nunc, Inc. Denmark) for 3 days (except for TT −5 days) at 37° C. under humidified air containing 5% CO2. At some instances 50 μl of supernatants were transferred to a new plate and frozen immediately at −70° C. to be used for cytokine measurements. Thymidine (50 μl, 1 μCi/well) was added at final 16 hours of culture. Cells were harvested and thymidine incorporation was determined using a beta scintillation counter.\nTo determine whether or not these effects were due to non-specific suppression of the immune system, we examined the production of Th1 and Th2 cytokines in mitogen-activated mononuclear leukocytes. Splenocytes from (β-oxa-21:3n-3)- or vehicle-administered pre-immune animals were cultured for 3 days in the presence of PHA-PMA or PMA-A23187. The cell culture fluids were collected and cytokines measured."}, "splenocytes": {"test_system": "splenocytes", "experiment": "Ex-vivo antigen (SRBC)-dependent splenocyte proliferation after administration to SRBC-immunized mice (thymidine incorporation)", "format": "in vivo, Balb/c mice", "protocol": "Mice were immunized with SRBC for 5 days. β-oxa-21:3n-3 was delivered in DMSO and injected intraperitoneally at the indicated doses. After 2 h spleens were removed and single cell suspensions were prepared. The splenocytes were cultured for 3 days in the presence (□), or absence (▪) of SRBC. Thymidine incorporation for final 16 hours of culture was determined. The data is expressed as mean±SEM of 3 separate experiments each in triplicate.\nMice were immunized with SRBC for 5 days. Then β-oxa-21:3n-3 dissolved in syngeneic mouse serum and injected intraperitoneally (A), intravenously (B) or gavaged/orally (C) at the indicated concentrations. After 2 h spleens were removed, single cell suspensions prepared and the splenocytes cultured for 3 days in the presence (▪), or absence (□) of SRBC. Thymidine incorporation for final 16 hours of culture was determined. The data is presented as the mean±SEM of 3 separate experiments separate experiments, each in quintuplets.\nMice were immunized with SRBC. After 5 days they were given β-thia-21:3n-3 at the indicated doses i.p. After 2 hours the spleens were removed and processed into single cell suppressions. These were then cultured in the presence (□), or absence of (▪) of SRBC to assess the proliferation. The results are expressed as mean±SEM of 3 experiments. (B) Effect of β-oxa-21:3n-3 on tetanus toxoid (TT)-induced ex vivo lymphocyte responses. Mice were immunized with TT subcutaneously and after 7 days were given β-oxa-21:3n-3 in mouse serum, intraperitoneally. Two hours later the spleen removed, single cell suspension prepared and examined for lymphoproliferation responses to TT in 5 day cultures. The results are expressed as mean±SEM of 3 experiments.\nas §1"}}, "data": [{"compound": "CC/C=C\\C/C=C\\C/C=C\\CCCCCCCCOCC(=O)O", "note": "[β-oxa-21:3n-3]", "values": [{"measurement": "IL-2 secretion", "setting": "Th1 and Th2 cytokines; PHA-PMA-stimulated splenocytes", "value": "higher levels"}, {"measurement": "levels of IL-4, IL-5, TNFα and IFNγ", "setting": "Th1 and Th2 cytokines; PHA-PMA-stimulated splenocytes", "value": "no substantial increase"}, {"measurement": "IFNγ secretion", "setting": "Th1 and Th2 cytokines; PMA-A23187-stimulated splenocytes", "value": "reduction"}, {"measurement": "cytokine secretion", "setting": "Th1 and Th2 cytokines; PMA-A23187-stimulated splenocytes, apart from IFNγ", "value": "did not result in any substantial differences"}, {"measurement": "inhibition of splenocyte proliferation, duration of effect", "setting": "splenocytes; ex-vivo SRBC challenge 1, 2 and 6 days after single administration (80 mg/kg IP)", "value": "significant inhibition"}, {"measurement": "antigen-dependent splenocyte proliferation", "setting": "splenocytes; intravenous, in syngeneic mouse serum, compared with IP", "value": "even more pronounced"}, {"measurement": "antigen-dependent proliferation of splenocytes", "setting": "splenocytes; orally administered (gavage), in mouse serum", "value": "significantly depressed"}, {"measurement": "antigen-dependent proliferation of splenic lymphocytes, ex-vivo", "setting": "splenocytes; single IP injection in 7% DMSO, 2 h, SRBC pre-sensitized mice", "value": "dose-dependent inhibition"}]}]}
